For this assay, the system named is B-16 melanoma cells. As to the kind of experiment: Evaluation of melanin production-inhibitory effect (cell-whitening degree of cultured B-16 melanoma cells). On Melanin production-inhibitory effect (cell-whitening degree): key: ++: The whitening degree is higher than that observed for the positive control; +: The whitening degree is almost identical to that observed for the positive control; ±: The whitening degree is not higher than that observed for the positive control, but higher than that observed for the control; −: The whitening degree is almost identical to that observed for the control. The following applies: for Melanin production-inhibitory effect (cell-whitening degree): positive control 450 ppm vitamin C-magnesium phosphate; for melanogenesis-inhibitory function relative to that observed when 450 ppm of vitamin C-magnesium phosphate (standard) is added: from Table 1. It counts as cell-based. How it is done:
In the present invention, the melanogenesis-inhibitory effect is evaluated and compared on the basis of the results of tests for examining the melanogenesis-inhibitory function in which B-16 melanoma cells are cultivated, as a primary evaluation. Moreover, a feed is, for instance, practically prepared and its effectiveness in the melanogenesis-inhibition is evaluated as a secondary evaluation. It has been confirmed that the pentacyclic triterpenes whose strong melanogenesis-inhibitory function is confirmed by the cell culture test as the primary evaluation also show an excellent effect in the secondary evaluation test. In addition, it has also been confirmed that there is a correlation between the results obtained in these two evaluation methods.
If the culture system includes a melanogenesis-inhibitory substance during the proliferation thereof, the blackening of the cells is suppressed while the whitening thereof is relatively promoted. Accordingly, the melanogenesis-inhibitory function of the substance can be evaluated by comparing the degree of whitening observed for the substance with the degree of blackening observed for a control. The evaluated results of the melanogenesis-inhibitory effect obtained in this cell culture system clearly indicate that the pentacyclic triterpenes and/or physiologically acceptable salts thereof or derivatives thereof have quite strong melanogenesis-inhibitory effects. For instance, when comparing the effects thereof with that achieved by vitamin C-magnesium phosphate, the melanogenesis-inhibitory effect is about 100 to 200 times, for maslinic acid, about 100 to 200 times, for maslinic acid salts, about 10 to 100 times, for erythrodiol, about 30 to 120 times, for uvaol, about 30 to 120 times, for betulinic acid, about 10 to 100 times, for betulin, about 100 to 200 times, for ethyl maslinate, about 50 to 150 times, for acetylated maslinic acid, about 30 to 120 times, for triethylsilylated maslinic acid, about 50 to 150 times, for stearoyl derivative of ethyl maslinate, about 10 to 100 times, for acetylated erythrodiol, about 10 to 100 times, for acetylated uvaol, about 10 to 100 times, for ethyl betulinate, and about 5 to 50 times, for acetylated betulin, that observed for the vitamin C-magnesium phosphate.
A culture medium was dispensed to wells of a 6-well plate (2 mL/well each), followed by inoculation of a desired amount of B-16 melanoma cells on each well, allowing the wells to stand at 37° C. and 5% CO2 to thus cultivate the cells. On the day subsequent thereto, a candidate sample (pentacyclic triterpenes) solution prepared was added to and mixed with the culture medium containing the cells and the cultivation was continued. The culture medium was replaced with fresh one on the 5th day from the initiation of the cultivation and the prepared sample solution was again added to the wells. On the next day, the culture medium was removed to recover the cells, followed by the washing of these cells with PBS (phosphate buffered physiological saline) and the subsequent evaluation of the cell-whitening degree. In this respect, the melanogenesis-inhibitory function was evaluated by comparing the cell-whitening degree thus obtained with that observed when using 450 ppm of vitamin C-magnesium phosphate as a known whitening agent (a positive control) and that obtained when any candidate sample was not used (control), according to the following evaluation criteria.
The evaluation criteria for the cell-whitening degree are as follows:
Regarding the results listed in Table 1, the whitening degree observed when adding 450 ppm of vitamin C-magnesium phosphate is selected as a standard.

The structures appear in SMILES notation.

Consider `C=C(C)[C@@H]1CC[C@]2(CO)CC[C@]3(C)[C@H](CC[C@@H]4[C@@]5(C)CC[C@H](O)C(C)(C)[C@@H]5CC[C@]43C)[C@@H]12` [Betulin], for which the “melanogenesis-inhibitory function relative to that observed when 450 ppm of vitamin C-magnesium phosphate (standard) is added” value is on record as “about 20 times”. In addition, the “Melanin production-inhibitory effect (cell-whitening degree)” value (from here on “Melanin production-inhibitory effect”) (2 ppm) is reported as “−”. In addition, the “Melanin production-inhibitory effect” value (6 ppm) was “±”. The “Melanin production-inhibitory effect” value (10 ppm) was “±”. Besides, the “Melanin production-inhibitory effect” value (25 ppm) is listed as “+”. For the same molecule, the “Melanin production-inhibitory effect” value (50 ppm) is “+”.
Consider `C=C(C)[C@@H]1CC[C@]2(C(=O)O)CC[C@]3(C)[C@H](CC[C@@H]4[C@@]5(C)CC[C@H](O)C(C)(C)[C@@H]5CC[C@]43C)[C@@H]12` [Betulinic acid], for which the “melanogenesis-inhibitory function relative to that observed when 450 ppm of vitamin C-magnesium phosphate (standard) is added” value is reported as “about 40 times”. For the same molecule, the “Melanin production-inhibitory effect” value (2 ppm) is “−”. Also, the “Melanin production-inhibitory effect” value (6 ppm) is reported as “±”. For the same molecule, where the note is “10 ppm”, the “Melanin production-inhibitory effect” value was “+”. Also, the “Melanin production-inhibitory effect” value (25 ppm) is “+”. The “Melanin production-inhibitory effect” value (50 ppm) was “+”.
Regarding `CCOC(=O)[C@]12CCC(C)(C)C[C@H]1C1=CC[C@@H]3[C@@]4(C)C[C@@H](O)[C@H](O)C(C)(C)[C@@H]4CC[C@@]3(C)[C@]1(C)CC2` [Compound of Synthesis 1, Ethyl Ester of Maslinic Acid], the “melanogenesis-inhibitory function relative to that observed when 450 ppm of vitamin C-magnesium phosphate (standard) is added” value is listed as “about 110 times”. Moreover, the “Melanin production-inhibitory effect” value (2 ppm) is recorded as “±”. In addition, under “4 ppm”, the “Melanin production-inhibitory effect” value was “+”. For the same molecule, the “Melanin production-inhibitory effect” value (6 ppm) is listed as “++”. Further, the “Melanin production-inhibitory effect” value (8 ppm) is “++”. For the same molecule, for the setting “10 ppm”, the “Melanin production-inhibitory effect” value was “++”.
Take `CC(=O)O[C@@H]1C[C@]2(C)[C@H]3CC=C4[C@@H]5CC(C)(C)CC[C@]5(C(=O)O)CC[C@@]4(C)[C@]3(C)CC[C@H]2C(C)(C)[C@H]1OC(C)=O` [Compound of Synthesis 2, 2,3-O-Di-Acetyl-Maslinic Acid]: the “melanogenesis-inhibitory function relative to that observed when 450 ppm of vitamin C-magnesium phosphate (standard) is added” value is “about 75 times”. The “Melanin production-inhibitory effect” value (2 ppm) is “±”. Moreover, under “4 ppm”, the “Melanin production-inhibitory effect” value is “±”. Further, the “Melanin production-inhibitory effect” value (6 ppm) is “+”. Moreover, the “Melanin production-inhibitory effect” value (8 ppm) is on record as “++”. In addition, where the note is “10 ppm”, the “Melanin production-inhibitory effect” value is given as “++”. For the same molecule, the “Melanin production-inhibitory effect” value (15 ppm) was “++”.
On to `CC[Si](CC)(CC)OC(=O)[C@]12CCC(C)(C)C[C@H]1C1=CC[C@@H]3[C@@]4(C)C[C@@H](O[Si](CC)(CC)CC)[C@H](O[Si](CC)(CC)CC)C(C)(C)[C@@H]4CC[C@@]3(C)[C@]1(C)CC2` [Compound of Synthesis 3, Triethylsilyl Ester of 2,3-O-Di-Triethylsilyl-Maslinic Acid], for which the “melanogenesis-inhibitory function relative to that observed when 450 ppm of vitamin C-magnesium phosphate (standard) is added” value is “about 40 times”. The “Melanin production-inhibitory effect” value (2 ppm) is reported as “−”. For the same molecule, where the note is “6 ppm”, the “Melanin production-inhibitory effect” value is reported as “±”. For the setting “10 ppm”, the “Melanin production-inhibitory effect” value is given as “+”. The “Melanin production-inhibitory effect” value (25 ppm) is “+”. Moreover, where the note is “50 ppm”, the “Melanin production-inhibitory effect” value is given as “+”.
Regarding `CCCCCCCCCCCCCCCCCC(=O)O[C@@H]1C[C@]2(C)[C@H]3CC=C4[C@@H]5CC(C)(C)CC[C@]5(C(=O)OCC)CC[C@@]4(C)[C@]3(C)CC[C@H]2C(C)(C)[C@H]1OC(=O)CCCCCCCCCCCCCCCCC` [Compound of Synthesis 4, Ethyl 2,3-O-Di-Stearoyl-Maslinate], the “melanogenesis-inhibitory function relative to that observed when 450 ppm of vitamin C-magnesium phosphate (standard) is added” value is listed as “about 75 times”. Besides, the “Melanin production-inhibitory effect” value (2 ppm) was “±”. For the same molecule, the “Melanin production-inhibitory effect” value (4 ppm) is “±”. Further, where the note is “6 ppm”, the “Melanin production-inhibitory effect” value was “+”. Also, the “Melanin production-inhibitory effect” value (8 ppm) was “++”. Also, the “Melanin production-inhibitory effect” value (10 ppm) is “++”. For the setting “15 ppm”, the “Melanin production-inhibitory effect” value was “++”.
With `CC(=O)OCC12CCC(C)(C)CC1C1=CCC3C4(C)CCC(OC(C)=O)C(C)(C)C4CCC3(C)C1(C)CC2` (centres unmarked) [Compound of Synthesis 5, 3,28-O-Di-Acetyl-Erythrodiol], the “melanogenesis-inhibitory function relative to that observed when 450 ppm of vitamin C-magnesium phosphate (standard) is added” value is “about 20 times”. Moreover, the “Melanin production-inhibitory effect” value (2 ppm) is reported as “−”. Also, the “Melanin production-inhibitory effect” value (6 ppm) is “±”. Further, the “Melanin production-inhibitory effect” value (10 ppm) is given as “±”. Under “25 ppm”, the “Melanin production-inhibitory effect” value was “+”. For the setting “50 ppm”, the “Melanin production-inhibitory effect” value was “+”.
On to `CCOC(=O)[C@]12CC[C@@H](C)[C@H](C)[C@H]1C1=CC[C@@H]3[C@@]4(C)CC[C@H](O)C(C)(C)[C@@H]4CC[C@@]3(C)[C@]1(C)CC2` [Compound of Synthesis 6, Ethyl Ursolate], for which the “melanogenesis-inhibitory function relative to that observed when 450 ppm of vitamin C-magnesium phosphate (standard) is added” value is reported as “about 110 times”. The “Melanin production-inhibitory effect” value (2 ppm) was “±”. Further, the “Melanin production-inhibitory effect” value (4 ppm) was “+”. The “Melanin production-inhibitory effect” value (6 ppm) is “++”. The “Melanin production-inhibitory effect” value (8 ppm) is “++”. The “Melanin production-inhibitory effect” value (10 ppm) is “++”.
On to `CC(=O)OC[C@]12CC[C@@H](C)[C@H](C)[C@H]1C1=CC[C@@H]3[C@@]4(C)CC[C@H](OC(C)=O)C(C)(C)[C@@H]4CC[C@@]3(C)[C@]1(C)CC2` [Compound of Synthesis 7, 3,28-O-Di-Acetyl-Uvaol], for which the “melanogenesis-inhibitory function relative to that observed when 450 ppm of vitamin C-magnesium phosphate (standard) is added” value is “about 20 times”. In addition, the “Melanin production-inhibitory effect” value (2 ppm) was “−”. For the same molecule, where the note is “6 ppm”, the “Melanin production-inhibitory effect” value is “−”. In addition, under “10 ppm”, the “Melanin production-inhibitory effect” value is listed as “±”. Besides, under “25 ppm”, the “Melanin production-inhibitory effect” value is given as “+”. Moreover, the “Melanin production-inhibitory effect” value (50 ppm) is on record as “+”.
`C=C(C)[C@@H]1CC[C@]2(C(=O)OCC)CC[C@]3(C)[C@H](CC[C@@H]4[C@@]5(C)CC[C@H](O)C(C)(C)[C@@H]5CC[C@]43C)[C@@H]12` [Compound of Synthesis 8, Ethyl Betulinate]: the “melanogenesis-inhibitory function relative to that observed when 450 ppm of vitamin C-magnesium phosphate (standard) is added” value is “about 20 times”. The “Melanin production-inhibitory effect” value (2 ppm) is on record as “−”. Besides, the “Melanin production-inhibitory effect” value (6 ppm) is given as “±”. Besides, the “Melanin production-inhibitory effect” value (10 ppm) is reported as “±”. Where the note is “25 ppm”, the “Melanin production-inhibitory effect” value was “+”. For the same molecule, under “50 ppm”, the “Melanin production-inhibitory effect” value is “+”.
For the molecule `C=C(C)[C@@H]1CC[C@]2(COC(C)=O)CC[C@]3(C)[C@H](CC[C@@H]4[C@@]5(C)CC[C@H](OC(C)=O)C(C)(C)[C@@H]5CC[C@]43C)[C@@H]12` [Compound of Synthesis 9, 3,28-O-Di-Acetyl-Betulin], the “melanogenesis-inhibitory function relative to that observed when 450 ppm of vitamin C-magnesium phosphate (standard) is added” value is “about 10 times”. In addition, the “Melanin production-inhibitory effect” value (2 ppm) is given as “−”. Further, the “Melanin production-inhibitory effect” value (6 ppm) is on record as “−”. Besides, for the setting “10 ppm”, the “Melanin production-inhibitory effect” value is reported as “±”. Also, under “25 ppm”, the “Melanin production-inhibitory effect” value is recorded as “±”. The “Melanin production-inhibitory effect” value (50 ppm) is given as “+”.
In the case of `CC1(C)CC[C@]2(CO)CC[C@]3(C)C(=CC[C@@H]4[C@@]5(C)CC[C@H](O)C(C)(C)[C@@H]5CC[C@]43C)[C@@H]2C1` [Erythrodiol], the “melanogenesis-inhibitory function relative to that observed when 450 ppm of vitamin C-magnesium phosphate (standard) is added” value is “about 20 times”. The “Melanin production-inhibitory effect” value (2 ppm) is “±”. For the same molecule, the “Melanin production-inhibitory effect” value (6 ppm) is “±”. Moreover, where the note is “10 ppm”, the “Melanin production-inhibitory effect” value is on record as “±”. For the same molecule, the “Melanin production-inhibitory effect” value (25 ppm) is on record as “+”. The “Melanin production-inhibitory effect” value (50 ppm) is on record as “+”.

The record behind these values is patent publication US20040175447A1, “Feeds and fertilizers containing pentacyclic triterpenes” (The Nisshin OilliO, Ltd., priority 2001, published 2004).
